The values that follow come from patent US10894817B2, “Fatty acid modified urocortin-2 analogs for the treatment of diabetes and chronic kidney disease” (priority 2016, dated 2021).

As a reminder, the EC50 is the midpoint of the concentration-response curve.

Starred links: 1 amine or outer side, 2 acyl side, 3 side chain; linkers in the order of their positions; H or OH if unused. Residues, ends and D or L forms follow the SMILES beside them. Groups on a side chain read outwards from the residue. *: point of attachment. C18 diacid = O=C(O)CCCCCCCCCCCCCCCCC(=O)*; γGlu = O=C(O)[C@H](CCC(=O)[*:2])N[*:1]; AEEA = NCCOCCOCC(=O)O

One test deals with T1, human CRHR2b (Homo sapiens, UniProt Q13324).
T1 construct: expressed in transfected cells; host or cells: Chinese Hamster Ovary (CHO) cells, transient transfection
T1 sequence (Q13324 1-438 isoform Q13324-2): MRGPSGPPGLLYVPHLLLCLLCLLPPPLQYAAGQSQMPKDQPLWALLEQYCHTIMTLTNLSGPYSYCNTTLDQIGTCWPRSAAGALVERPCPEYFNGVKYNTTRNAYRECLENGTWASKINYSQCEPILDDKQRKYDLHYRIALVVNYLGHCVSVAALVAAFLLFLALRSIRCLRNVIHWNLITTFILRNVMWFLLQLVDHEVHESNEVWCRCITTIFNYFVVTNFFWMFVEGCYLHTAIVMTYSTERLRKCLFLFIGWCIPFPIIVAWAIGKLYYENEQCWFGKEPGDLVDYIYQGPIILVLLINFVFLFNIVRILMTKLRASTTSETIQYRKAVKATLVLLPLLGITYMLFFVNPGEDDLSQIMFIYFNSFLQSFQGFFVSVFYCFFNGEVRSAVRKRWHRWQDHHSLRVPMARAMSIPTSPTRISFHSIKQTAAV
The test is described as follows: human CRHR2b cell-based cAMP assay.
Settings: not given
In a few lines: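 ED50 values are means ± SEM over several runs, curve-fitted from cAMP in pmol, calibrated against unlabeled-cAMP standards. Detection was HTRF competition, ratio 665/620 nm, after 30 min agonist exposure at 37 °C.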
Take `CC[C@H](C)[C@H](N)C(=O)N[C@H](C(=O)N[C@@H](CC(C)C)C(=O)N[C@@H](CO)C(=O)N[C@@H](CC(C)C)C(=O)N[C@@H](CC(=O)O)C(=O)N[C@H](C(=O)N1CCC[C@H]1C(=O)N[C@H](C(=O)NCC(=O)N[C@@H](CC(C)C)C(=O)N[C@@H](CC(C)C)C(=O)N[C@@H](CCC(N)=O)C(=O)N[C@H](C(=O)N[C@@H](CC(C)C)C(=O)N[C@@H](CC(C)C)C(=O)N[C@@H](CCCCNC(=O)COCCOCCNC(=O)COCCOCCNC(=O)CC[C@H](NC(=O)CC[C@H](NC(=O)CCCCCCCCCCCCCCCCC(=O)O)C(=O)O)C(=O)O)C(=O)N[C@@H](CCC(N)=O)C(=O)N[C@@H](CCC(=O)O)C(=O)N[C@@H](CCCCN)C(=O)N[C@@H](CCC(N)=O)C(=O)N[C@@H](CCC(=O)O)C(=O)N[C@@H](CCCCN)C(=O)N[C@@H](CCC(=O)O)C(=O)N[C@@H](CCCCN)C(=O)N[C@@H](CCC(N)=O)C(=O)N[C@@H](CCC(N)=O)C(=O)N[C@@H](C)C(=O)N[C@H](C(=O)N[C@H](C(=O)N[C@@H](CC(N)=O)C(=O)N[C@@H](C)C(=O)N[C@@H](CCC(N)=O)C(=O)N[C@H](C(=O)N[C@@H](CC(C)C)C(=O)N[C@@H](C)C(=O)N[C@@H](CCC(N)=O)C(=O)N[C@H](C(N)=O)C(C)C)[C@@H](C)CC)[C@@H](C)O)[C@@H](C)O)[C@@H](C)CC)[C@@H](C)CC)C(C)C)C(C)C` [Compound 50] (H-IVLSLDVPIGLLQILLK([AEEA-AEEA-γGlu-γGlu-C18 diacid])QEKQEKEKQQATTNAQILAQV-NH2): the EC50 was found to be 3.56 nM.

The same test, now with this note: cAMP assay; Table 26, compounds of Example 9; read-out: hCRHR2b Average EC50.
Regarding `CC[C@H](C)[C@H](N)C(=O)N[C@H](C(=O)N[C@@H](CC(C)C)C(=O)N[C@@H](CO)C(=O)N[C@@H](CC(C)C)C(=O)N[C@@H](CC(=O)O)C(=O)N[C@H](C(=O)N1CCC[C@H]1C(=O)N[C@H](C(=O)NCC(=O)N[C@@H](CC(C)C)C(=O)N[C@@H](CC(C)C)C(=O)N[C@@H](CCC(N)=O)C(=O)N[C@H](C(=O)N[C@@H](CC(C)C)C(=O)N[C@@H](CC(C)C)C(=O)N[C@@H](CCC(=O)O)C(=O)N[C@@H](CCC(N)=O)C(=O)N[C@@H](CCC(=O)O)C(=O)N[C@@H](CCCCN)C(=O)N[C@@H](CCC(N)=O)C(=O)N[C@@H](CCC(=O)O)C(=O)N[C@@H](CCCCN)C(=O)N[C@@H](CCC(=O)O)C(=O)N[C@@H](CCCCN)C(=O)N[C@@H](CCCCNC(=O)COCCOCCNC(=O)COCCOCCNC(=O)CC[C@H](NC(=O)CC[C@H](NC(=O)CCCCCCCCCCCCCCCCC(=O)O)C(=O)O)C(=O)O)C(=O)N[C@@H](CCC(N)=O)C(=O)N[C@@H](C)C(=O)N[C@H](C(=O)N[C@H](C(=O)N[C@@H](CC(N)=O)C(=O)N[C@@H](C)C(=O)N[C@@H](CCC(N)=O)C(=O)N[C@H](C(=O)N[C@@H](CC(C)C)C(=O)N[C@@H](C)C(=O)N[C@@H](Cc1c[nH]cn1)C(=O)N[C@H](C(N)=O)C(C)C)[C@@H](C)CC)[C@@H](C)O)[C@@H](C)O)[C@@H](C)CC)[C@@H](C)CC)C(C)C)C(C)C` [Compound 47] (H-IVLSLDVPIGLLQILLEQEKQEKEKK([AEEA-AEEA-γGlu-γGlu-C18 diacid])QATTNAQILAHV-NH2), the half-maximal effective concentration (EC50) turned out to be 4.56 nM. Regarding `CC[C@H](C)[C@H](N)C(=O)N[C@H](C(=O)N[C@@H](CC(C)C)C(=O)N[C@@H](CO)C(=O)N[C@@H](CC(C)C)C(=O)N[C@@H](CC(=O)O)C(=O)N[C@H](C(=O)N1CCC[C@H]1C(=O)N[C@H](C(=O)NCC(=O)N[C@@H](CC(C)C)C(=O)N[C@@H](CC(C)C)C(=O)N[C@@H](CCC(N)=O)C(=O)N[C@H](C(=O)N[C@@H](CC(C)C)C(=O)N[C@@H](CC(C)C)C(=O)N[C@@H](CCC(=O)O)C(=O)N[C@@H](CCC(N)=O)C(=O)N[C@@H](CCC(=O)O)C(=O)N[C@@H](CCCCN)C(=O)N[C@@H](CCC(N)=O)C(=O)N[C@@H](CCC(=O)O)C(=O)N[C@@H](CCCCN)C(=O)N[C@@H](CCC(=O)O)C(=O)N[C@@H](CCCCN)C(=O)N[C@@H](CCC(N)=O)C(=O)N[C@@H](CCC(N)=O)C(=O)N[C@@H](C)C(=O)N[C@@H](CCCCNC(=O)COCCOCCNC(=O)COCCOCCNC(=O)CC[C@H](NC(=O)CC[C@H](NC(=O)CCCCCCCCCCCCCCCCC(=O)O)C(=O)O)C(=O)O)C(=O)N[C@H](C(=O)N[C@@H](CC(N)=O)C(=O)N[C@@H](C)C(=O)N[C@@H](CCC(N)=O)C(=O)N[C@H](C(=O)N[C@@H](CC(C)C)C(=O)N[C@@H](C)C(=O)N[C@@H](Cc1c[nH]cn1)C(=O)N[C@H](C(N)=O)C(C)C)[C@@H](C)CC)[C@@H](C)O)[C@@H](C)CC)[C@@H](C)CC)C(C)C)C(C)C` [Compound 48] (H-IVLSLDVPIGLLQILLEQEKQEKEKQQAK([AEEA-AEEA-γGlu-γGlu-C18 diacid])TNAQILAHV-NH2), the 50% effective concentration (EC50) came to 3.61 nM. On the same count and under the same terms, then `CC[C@H](C)[C@H](N)C(=O)N[C@H](C(=O)N[C@@H](CC(C)C)C(=O)N[C@@H](CO)C(=O)N[C@@H](CC(C)C)C(=O)N[C@@H](CC(=O)O)C(=O)N[C@H](C(=O)N1CCC[C@H]1C(=O)N[C@H](C(=O)N[C@@H](CCCCNC(=O)COCCOCCNC(=O)COCCOCCNC(=O)CC[C@H](NC(=O)CC[C@H](NC(=O)CCCCCCCCCCCCCCCCC(=O)O)C(=O)O)C(=O)O)C(=O)N[C@@H](CC(C)C)C(=O)N[C@@H](CC(C)C)C(=O)N[C@@H](CCC(N)=O)C(=O)N[C@H](C(=O)N[C@@H](CC(C)C)C(=O)N[C@@H](CC(C)C)C(=O)N[C@@H](CCC(=O)O)C(=O)N[C@@H](CCC(N)=O)C(=O)N[C@@H](CCC(=O)O)C(=O)N[C@@H](CCCCN)C(=O)N[C@@H](CCC(N)=O)C(=O)N[C@@H](CCC(=O)O)C(=O)N[C@@H](CCCCN)C(=O)N[C@@H](CCC(=O)O)C(=O)N[C@@H](CCCCN)C(=O)N[C@@H](CCC(N)=O)C(=O)N[C@@H](CCC(N)=O)C(=O)N[C@@H](C)C(=O)N[C@H](C(=O)N[C@H](C(=O)N[C@@H](CC(N)=O)C(=O)N[C@@H](C)C(=O)N[C@@H](CCC(N)=O)C(=O)N[C@H](C(=O)N[C@@H](CC(C)C)C(=O)N[C@@H](C)C(=O)N[C@@H](CCC(N)=O)C(=O)N[C@H](C(N)=O)C(C)C)[C@@H](C)CC)[C@@H](C)O)[C@@H](C)O)[C@@H](C)CC)[C@@H](C)CC)C(C)C)C(C)C` [Compound 49] (H-IVLSLDVPIK([AEEA-AEEA-γGlu-γGlu-C18 diacid])LLQILLEQEKQEKEKQQATTNAQILAQV-NH2), with 2.86 nM; and `CC[C@H](C)[C@H](N)C(=O)N[C@H](C(=O)N[C@@H](CC(C)C)C(=O)N[C@@H](CO)C(=O)N[C@@H](CC(C)C)C(=O)N[C@@H](CC(=O)O)C(=O)N[C@H](C(=O)N1CCC[C@H]1C(=O)N[C@H](C(=O)NCC(=O)N[C@@H](CC(C)C)C(=O)N[C@@H](CC(C)C)C(=O)N[C@@H](CCC(N)=O)C(=O)N[C@H](C(=O)N[C@@H](CC(C)C)C(=O)N[C@@H](CC(C)C)C(=O)N[C@@H](CCC(=O)O)C(=O)N[C@@H](CCC(N)=O)C(=O)N[C@@H](CCC(=O)O)C(=O)N[C@@H](CCCCN)C(=O)N[C@@H](CCC(N)=O)C(=O)N[C@@H](CCC(=O)O)C(=O)N[C@@H](CCCCN)C(=O)N[C@@H](CCC(=O)O)C(=O)N[C@@H](CCCCN)C(=O)N[C@@H](CCCCNC(=O)COCCOCCNC(=O)COCCOCCNC(=O)CC[C@H](NC(=O)CC[C@H](NC(=O)CCCCCCCCCCCCCCCCC(=O)O)C(=O)O)C(=O)O)C(=O)N[C@@H](CCC(N)=O)C(=O)N[C@@H](C)C(=O)N[C@H](C(=O)N[C@H](C(=O)N[C@@H](CC(N)=O)C(=O)N[C@@H](C)C(=O)N[C@@H](CCC(N)=O)C(=O)N[C@H](C(=O)N[C@@H](CC(C)C)C(=O)N[C@@H](C)C(=O)N[C@@H](CCC(N)=O)C(=O)N[C@H](C(N)=O)C(C)C)[C@@H](C)CC)[C@@H](C)O)[C@@H](C)O)[C@@H](C)CC)[C@@H](C)CC)C(C)C)C(C)C` [Compound 51] (H-IVLSLDVPIGLLQILLEQEKQEKEKK([AEEA-AEEA-γGlu-γGlu-C18 diacid])QATTNAQILAQV-NH2), with 2.42 nM; and `CC[C@H](C)[C@H](N)C(=O)N[C@H](C(=O)N[C@@H](CC(C)C)C(=O)N[C@@H](CO)C(=O)N[C@@H](CC(C)C)C(=O)N[C@@H](CC(=O)O)C(=O)N[C@H](C(=O)N1CCC[C@H]1C(=O)N[C@H](C(=O)NCC(=O)N[C@@H](CC(C)C)C(=O)N[C@@H](CC(C)C)C(=O)N[C@@H](CCC(N)=O)C(=O)N[C@H](C(=O)N[C@@H](CC(C)C)C(=O)N[C@@H](CC(C)C)C(=O)N[C@@H](CCC(=O)O)C(=O)N[C@@H](CCC(N)=O)C(=O)N[C@@H](CCC(=O)O)C(=O)N[C@@H](CCCCN)C(=O)N[C@@H](CCC(N)=O)C(=O)N[C@@H](CCC(=O)O)C(=O)N[C@@H](CCCCN)C(=O)N[C@@H](CCC(=O)O)C(=O)N[C@@H](CCCCN)C(=O)N[C@@H](CCC(N)=O)C(=O)N[C@@H](CCC(N)=O)C(=O)N[C@@H](C)C(=O)N[C@@H](CCCCNC(=O)COCCOCCNC(=O)COCCOCCNC(=O)CC[C@H](NC(=O)CC[C@H](NC(=O)CCCCCCCCCCCCCCCCC(=O)O)C(=O)O)C(=O)O)C(=O)N[C@H](C(=O)N[C@@H](CC(N)=O)C(=O)N[C@@H](C)C(=O)N[C@@H](CCC(N)=O)C(=O)N[C@H](C(=O)N[C@@H](CC(C)C)C(=O)N[C@@H](C)C(=O)N[C@@H](CCC(N)=O)C(=O)N[C@H](C(N)=O)C(C)C)[C@@H](C)CC)[C@@H](C)O)[C@@H](C)CC)[C@@H](C)CC)C(C)C)C(C)C` [Compound 52] (H-IVLSLDVPIGLLQILLEQEKQEKEKQQAK([AEEA-AEEA-γGlu-γGlu-C18 diacid])TNAQILAQV-NH2), with 1.16 nM.
